Tests used:
[1] = pulmonary cancer patients treated with epirubicin and simultaneously NAC; cited from earlier work
[2] = test system: animal tumor models; assay: Animal tumor models (skin papillomas, mammary adenocarcinomas, tracheal cancer, pulmonary adenocarcinomas, colon carcinomas, bladder cancer); type: in vivo; conditions: several animal tumor models in mouse, rat, hamster
Protocol: These studies were conducted in several animal tumor models. Test systems used were the mouse, the rat, and the hamster. The objects of study included skin papillomas, mammary adenocarcinomas, tracheal cancer, pulmonary adenocarcinomas as well as colon carcinomas and bladder cancer.

[3] = test system: reduced glutathione (GSH) in the hepatic tissue; assay: Effect of 2-MTDC on reduced glutathione (GSH) in the hepatic tissue in mice; type: in vivo; conditions: mouse liver; for Glutathione (GSH), % of the reference value: reference 0.9% NaCl
[4] = cited from earlier work
[5] = 2-MTDC 1.2 mmol/kg intraperitoneally, 8 hours after injection
[6] = 2-MTDC 2.4 mmol/kg intraperitoneally, 4 hours after injection

## CC(=O)N[C@@H](CS)C(=O)O [N-acetylcysteine]
[1]
  Effect on undesirable cardiotoxic effects of epirubicin: undesirable cardiotoxic effects of epirubicin could be prevented

## CC1(C(=O)O)NC(C(=O)O)CS1 (stereo not shown) [2-MTDC, 2-methyl-thiazolidine-2,4-dicarboxylic acid]
[2]
  Effect on the advance of cancerous diseases: can slow down or even stop the advance of cancerous diseases
[3]; 2-MTDC 1.2 mmol/kg intraperitoneally, 1 hour after injection
  Glutathione (GSH), % of the reference value: 117.5%
[3]; 2-MTDC 1.2 mmol/kg intraperitoneally, 4 hours after injection
  Glutathione (GSH), % of the reference value: 87.2%
[3]; [5]
  Glutathione (GSH), mean ± SD: 6.48 ± 0.67 μmol/g wet weight
  Glutathione (GSH), % of the reference value: 108.5%
[3]; 2-MTDC 1.2 mmol/kg intraperitoneally, 12 hours after injection
  Glutathione (GSH), % of the reference value: 112.0%
[3]; 2-MTDC 2.4 mmol/kg intraperitoneally, 1 hour after injection
  Glutathione (GSH), % of the reference value: 127.6%
[3]; [6]
  Glutathione (GSH), mean ± SD: 5.76 ± 0.42 μmol/g wet weight
  Glutathione (GSH), % of the reference value: 90.3%
[3]; 2-MTDC 2.4 mmol/kg intraperitoneally, 8 hours after injection
  Glutathione (GSH), % of the reference value: 112.0%
[3]; 2-MTDC 2.4 mmol/kg intraperitoneally, 12 hours after injection
  Glutathione (GSH), % of the reference value: 154.5%

## CC1NC(C(=O)O)CS1 (stereo not shown)
[4]
  Stability under physiological conditions: spontaneously decomposes into its components under physiological conditions
